The values below come from patent US20250361217A1, “FATTY ACID COMPOUNDS” (University of Pittsburgh - Of the Commonwealth System of …, priority 2022, published 2025).

Molecules are shown by their SMILES.

Data set [1] relates to mice with established NASH. The conditions noted are these: intraperitoneal administration; cited from earlier work.
Data set [2] in a line: Cassette PK of branched vs straight-chain FA-AA (NAA) conjugates, oral or intraperitoneal. Type of data set: in vivo, mice. The following applies: 30 mg/kg; for levels in liver, rank among the groups / levels in plasma, rank among the groups: both intraperitoneal and oral administration. As for the experimental part:
A library of branched fatty acid-amino acid (FA-AA) conjugates was synthesized, exemplified in the table above. […] The absorption of the selected straight chain vs. branched FA-AA conjugates was compared in a cassette PK study as described below in more detail. A mixture of all the FA-AA conjugates (with or without branching) was concomitantly administered orally to mice (n=4-5, 30 mg/kg each compound). […] The absorption improvement resulting from the branching of the fatty acids was ubiquitous across all the FA-AA conjugates independent of the choice of amino acids. In contrast, all tested FA-AA conjugated dosed intraperitoneally (n=4-5, 30 mg/kg each compound) reached significant levels in circulation, bypassing the first-pass metabolism.
Two cassette PK experiments were performed to compare the pharmacokinetics of dimethyl acyl amino acids (acyl-2M-amino acids) with their natural, non-branched analogs and evaluate the increased half-life, oral bioavailability, and liver concentrations obtained by the invention (introduction of the dimethyl (2M) branching).
Groups of mice (n=4 per time point per group) were used. The compounds were delivered using a cassette pharmacokinetic design by oral gavage or by intraperitoneal injections at a dose of 30 mg/kg. Groups are detailed in table 1. To note, the methyl ester of C18:0-2M-Gly was abbreviated as C18:0-2M-Gly-Me.
The following groups were used, and the time points were 0, 1, 2, and 4 h for intraperitoneal administration and 0, 2, and 4 h for oral administration.

The subject of data set [3] is C57BL6 mice fed with the NASH diet. The data set is described as follows: Oral treatment in established NASH mouse model. Type of data set: in vivo. The following applies: oral 10 mg/kg/day, 6 weeks. As for the experimental part:
This study defined the protective properties of branched FA-AA conjugates and the enhanced potency of 11U3-2M conjugated to Leucine (Leu) when administered orally in an established NASH mouse model. C57BL6 mice were fed with the NASH diet for 16 weeks and then orally administered with vehicle (n=10), C18:1-Leu (n=10), C18:1-2M-Leu (n=8) and 11U3-2M-Leu (n=12) (10 mg/kg/day) for 6 weeks while on the NASH diet. Mice were sacrificed and organs were collected for further analysis.

`CCCCCCCC/C=C\CCCCCCCC(=O)N[C@@H](CC(C)C)C(=O)O` [C18:1-Leu, N-oleoyl leucine]: the “steatosis, inflammation and fibrosis in mice with established NASH” value in data set [1] was “improved steatosis, and lowered inflammation and fibrosis”.

In the case of `CCCc1ccc(CCCCCCCCCC(C)(C)C(=O)NC(CC(C)C)C(=O)O)o1` (stereo not shown) [11U3-2M-Leu], the “plasma concentration over time (resistance to metabolism) vs 11U3-Leu” value in data set [2] (mice) is “maintained over a longer period”. In data set [2], the “levels in liver, rank among the groups” value is given as “highest levels” and the “levels in plasma, rank among the groups” value is given as “highest levels”. Further, in data set [2] (intraperitoneal), the “AUC0-4 vs all the straight-chain analogs” value was “significantly higher”, the “Cmax vs all the straight-chain analogs” value was “significantly higher” and the “metabolism vs all the straight-chain analogs” value is given as “slower metabolism”. Moreover, in data set [3], the cholesterol levels result is on record as “significantly decreased”; the “expression of genes regulating lipogenesis in liver” value was “suppressed”; the “expression of key genes regulating fatty acid oxidation (PPARα signaling pathway) in liver” value is recorded as “significantly induced”; the “fibrosis and cell death genes (e.g., collagens and TGF-b) in liver” value is given as “anti-fibrotic actions”. In addition, in data set [3], the “inflammatory effect in the NASH animals (FIG. 23)” value is recorded as “anti-inflammatory”, the “liver weight in comparison to vehicle control” value is “significant decrease”, the “liver/body weight ratio in comparison to vehicle control” value is recorded as “significant decrease” and the “plasma alanine transaminase (ALT)” value is given as “significantly decreased”. For the same molecule, the “plasma aspartate transaminase (AST)” value in data set [3] is “significantly decreased”.

As to `CCCc1ccc(CCCCCCCCCC(C)(C)C(=O)NCC(=O)O)o1` [11U3-2M-Gly, (2,2-Dimethyl-11-(5-propylfuran-2-yl)undecanoyl)glycine], in data set [2], the “levels in liver, rank among the groups” value is listed as “highest levels” and the “levels in plasma, rank among the groups” value is reported as “highest levels”.

With `CCCCCCCCC=CCCCCCCC(C)(C)C(=O)N[C@@H](CC(C)C)C(=O)O` [C18:1-2M-Leu, (2,2-dimethyloctadec-9-enoyl)leucine], in data set [3], the “expression of genes regulating lipogenesis in liver” value is listed as “suppressed”; the “fibrosis and cell death genes (e.g., collagens and TGF-b) in liver” value is “anti-fibrotic actions”; the “plasma alanine transaminase (ALT)” value is listed as “significantly decreased”; the “plasma aspartate transaminase (AST)” value is recorded as “significantly decreased”.
